Measurements reported in patent US8883504B2, “Cell differentiation suppressing agent, method of culturing cells using the same, culture solution, and cultured cell line” (Asahi Kasei Kabushiki Kaisha, priority 2003, dated 2014).

Key:
mouse ES cell = assay: Subculture of ES cells, alkaline phosphatase quantified by colony assay; format: cell-based
Method: For the ES cells prepared by the method described in (3) preparation of the mouse ES cell of Example 1, 3×10^5 cells were seeded on a 6 cm-diameter cell culture dish coated previously with a 0.1% aqueous gelatin solution to make 4.5 mL of the ES cell assay medium. 0.5 mL of the differentiation inhibiting agent (A to F and a to o) of the present invention, which was dissolved in dimethylsulfoxide (DMSO) or culture medium, or their mixture to make 10 to 40 μg/mL per each dish, or 10^4 units/mL of ESGRO was added. The final concentration of DMSO in the culture medium was 0.1% or lower. As the control, only DMSO was made the final concentration in 0.1% by adding 0.5 mL of a 1% concentration solution diluted with the medium. Culturing was conducted at 37° C. in 5% CO2 incubator for 7 to 30 days. The medium was replaced every day, and the cells were passaged to make 3×10^5 cells/dish for every 2 to 3 days.
The alkaline phosphatase activity of the ES cells cultured for 7 or 30 days by using the differentiation inhibiting agents of the present invention was quantified by applying colony assay. […] The absorbance at 405 nm (O.D.405) and absorbance at 690 nm (O.D.690) of the solution were measured by using the spectrophotometer (Molecular Devices Corp. made, type: SPECTRA MAX190), and the value calculated from O.D.405-O.D.690 was determined as the alkaline phosphatase activity.

[1] = system: cynomolgus monkey ES cells; assay: ES cell differentiation inhibition assay 6, alkaline phosphatase staining; format: cell-based; details: for proportion of number of alkaline phosphatase stained colony to number of the total colony, in comparison with DMSO (0.1%): Matrigel-coated dish, cultured for 2 days, FIG. 15
Method: As the medium for culturing cynomolgus monkey ES cells, DME/F-12, 1:1 (SIGMA D6421) was added with respective factors in the final concentration as presented below to prepare a cynomolgus monkey ES cell culture medium: 20% knockout serum replacement: KSR (Invitrogen Corp. made, 10828-028), 1× nonessential amino acids (SIGMA M7145), 2 mM L-Glutamine (SIGMA G7513), 1 mM sodium pyruvate (SIGMA S8636), 1× penicillin/streptomycin solution (SIGMA P0781). The culture medium for a mouse feeder cell used for culturing cynomolgus monkey ES cells was prepared by adding respective factors to DMEM (Invitrogen Corp. made, 11960-044) in the final concentration shown below: 10% bovine fetus serum (Invitrogen Corp. made), 2 mM L-glutamine (Sigma G7513), 1× penicillin/streptomycin solution (Sigma P0781).
Gelatin (SIGMA Corp. made, Type A: from porcine ESkin, G2500) was dissolved in distilled water in 0.1% concentration, and 5 mL of the thus prepared 0.1% sterilized aqueous gelatin solution was added in a 6 cm-diameter cell culture dish, and then left stand at 37° C. for 30 minutes or longer. The aqueous gelatin solution was removed, and 2×10^6 mouse embryonic primary culture cell (Invitrogen Corp. made, YE9284400) treated with mitomycin, C (Kyouwa Hakkou Corp. made) was seeded and cultured by using the culture medium for the feeder cell as described above at 37° C. in 5% CO2 incubator (Tabai Espec Corp. made) for 5 hours or longer. The cynomolgus monkey ES cells (Tanabe Seiyaku, K.K. made) was seeded on mouse embryonic primary culture cell, and cultured and proliferated in 5 mL of cynomolgus monkey ES cell culture medium at 37° C. in 5% CO2 incubator for 3 days.
The cynomolgus monkey ES cells cultured by the method described in (1) culture of cynomolgus monkey ES cells as described above were washed with PBS and, then, a 0.1% collagenase solution (Wako Corp. made, 032-10534) dissolved in DMEM (Invitrogen Corp. made 11960-044), or a trypsin solution (prepared by mixing 10 mL of a 2.5% trypsin solution (Invitrogen Corp. made 15090-046), 20 mL of Knockout Serum Replacement (Invitrogen Corp. made 10828-028), 1 mL of a 100 mM CaCl2 aqueous solution and 69 mL of PBS) was added, and incubation was carried out at 37° C. for 5 minutes. 5 mL of the cynomolgus monkey ES cell culture medium was added, cell colonies were removed by using a small sized pipette and, then, dispersed, transferred to a 15 mL sterilized tube, and centrifuged at 1000 rpm for about 5 minutes by using the micro centrifuge (TOMY SEIKO made) to prepare pellets. The supernatant was removed, and then the cells were suspended again in 5 mL of the fresh ES cell culture medium to obtain the cynomolgus monkey ES cells. […]

SMILES	alkaline phosphatase activity of subcultured ES cells in comparison with ES cells cultured by using DMSO (0.1%) (mouse ES cell; subcultured in the medium without serum for 7 days by adding the compound, FIG. 14)	alkaline phosphatase staining of subcultured cells in comparison with DMSO ([1]; 3rd day after subculture after 3-day culture, FIG. 16)	proportion of number of alkaline phosphatase stained colony to number of the total colony, in comparison with DMSO (0.1%) [1]	effect on alkaline phosphatase staining in the presence of 6-bromoindirubin-3-oxime ([1]; subcultured, in the presence of 6-bromoindirubin-3-oxime, FIG. 16)	alkaline phosphatase activity of subcultured ES cells in comparison with ES cells cultured by using DMSO (0.1%) (mouse ES cell; subcultured for 30 days by adding the compound, FIG. 13)
COc1ccc(N=NC(C(N)=O)=C2NC(C)(C)Cc3ccccc32)cc1 [F, 2-(3,3-dimethyl-3,4-dihydro-2H-isoquinoline-1-ylidene)-2-(4-methoxy-phenylazo)-acetamide]	increased significantly	stained significantly	significantly higher proportion of colonies stained with alkaline phosphatase	reinforced	
CC(=O)c1ccc(/N=N/C(C(N)=O)=C2/NC(C)(C)Cc3ccccc32)cc1 [compound B, 2-(4-acetyl-phenylazo)-2-(3,3-dimethyl-3,4-dihydro-2H-isoquinoline-1-ylidene)-acetamide]			significantly higher proportion of colonies stained with alkaline phosphatase		increased significantly
